Patent US4610994A, “1,2,3-triazole anticonvulsant drugs” (priority 1984, dated 1986)
“And” between values parts separate entries of the source, which are not always exact repeats. Equal values may be shown once. “Also recorded” adds a separate entry of the source. Read-outs that look alike come from different tables or passages of the source.

How the values were obtained:
[1] = test system: maximal electro-shock seizure (MES) and subcutaneous pentylenetetrazole (Metrazole) seizure threshold (scMet); assay: Phase I anticonvulsant screening (MES test and scMet test); format: in vivo, mouse; conditions: for Anticonvulsant Activity Group Classification: mouse, MES and scMet tests, doses up to 300 mg/kg; for signs of neurological deficit: at effective dose levels (Class I) or 300 mg/kg (8, 13); for protection: 300 mg/kg
[2] = format: in vivo; conditions: mice, subcutaneous
Description: (§1) The profile of anticonvulsant activity for each substance was established by five tests: one electrical and four chemical. The electrical test employed was the maximal electroshock seizure pattern test. […] Except for the sc Strych Test, these tests measure the ability of anticonvulsants to afford complete protection against threshold seizures induced by the subcutaneous injection of the CD97 of the convulsant agent.

[3] = test system: subcutaneous Bicuculline seizures; assay: subcutaneous Bicuculline Seizure Threshold Test (sc Bic) in mice; format: in vivo, mice (male albino, CF No. 1); conditions: mice i.p., Compound 10 up to 300 mg/kg
Protocol: (§2) All animals were allowed free access to both food (S/L Custom Lab Diet-7) and water, except when they were removed from their cages for the experimental procedure.
(§3) The drugs were administered either orally or intraperitoneally in a volume of 0.01 ml/g body weight in mice and 0.04 ml/10 g in rats. All tests were conducted at the previously determined time of peak drug effect.
as §1
(§4) All convulsants were administered subcutaneously into a loose fold of skin on the back of the neck in a volume of 0.01 ml/g body weight in mice; Metrazol was injected in a volume of 0.02 ml/10 g body weight in rats. The convulsant drugs were administered at the previously determined time of peak anticonvulsant action of the drug under study. […] Except for strychnine, absence of a five-second episode of clonic spasms (threshold seizure) was taken as protection. In the case of strychnine, complete abolition of the hindleg tonic extension was taken as protection.

[4] = test system: subcutaneous Picrotoxin seizures; assay: subcutaneous Picrotoxin Seizure Threshold Test (sc Pic) in mice; format: in vivo, mice (male albino, CF No. 1); conditions: mice i.p., Compound 10 up to 300 mg/kg
Protocol: as §2, §3, §1, §4

[5] = test system: subcutaneous Strychnine seizures; format: in vivo, mice (male albino, CF No. 1); conditions: for effectiveness by the sc Strych test: mice i.p., Compound 10 up to 300 mg/kg
Protocol: as §2, §3, §1, §4

[6] = test system: maximal electroshock seizures; assay: maximal electroshock seizure (MES) pattern test in mice; conditions: for ED97: MES; for TPE: test not specified
Protocol: as §2, §3, §1

[7] = test system: maximal electroshock seizures; assay: maximal electroshock seizure (MES) pattern test in rats
Protocol: as §2, §3, §1

[8] = test system: subcutaneous Metrazol seizures; assay: subcutaneous Metrazol Seizure Threshold Test (sc Met) in mice; conditions: mice; for ED97: sc Met
Protocol: as §2, §3, §1, §4

[9] = test system: subcutaneous Metrazol seizures; assay: subcutaneous Metrazol Seizure Threshold Test (sc Met) in rats; conditions: oral, sc Met
Protocol: as §2, §3, §1, §4

[10] = Phase III toxicity profile (overt signs and symptoms) in mice i.p.; conditions: for Profile of acute toxicity, 1 x TD50: 1TD50; for Profile of acute toxicity, 2 x TD50: 2TD50; for Profile of acute toxicity, 4 x TD50: 4TD50
Protocol: (§5) The profile of toxicity for each test drug was established by the following procedures: Firstly, the minimal neurotoxic dose (TD50) was determined by the rotorod procedure at the time of peak neurotoxic effect. When a normal mouse is placed on a knurled rod one inch in diameter rotating at a speed of six rpm it can maintain its equilibrium for long periods of time. Neurological deficit is indicated by inability of the mouse to maintain its equilibrium for one minute in each of three trials on this rotating rod. […] The HD50 represents the median dose at which 50% of animals lose their righting reflex.

[11] = minimal neurotoxicity (ataxia, loss of placing response and muscle tone) in rats; conditions: rats, oral
Protocol: as §2, §3
(§6) The profile of toxicity for each test drug was established by the following procedures: Firstly, the minimal neurotoxic dose (TD50) was determined by the rotorod procedure at the time of peak neurotoxic effect. When a normal mouse is placed on a knurled rod one inch in diameter rotating at a speed of six rpm it can maintain its equilibrium for long periods of time. Neurological deficit is indicated by inability of the mouse to maintain its equilibrium for one minute in each of three trials on this rotating rod. Neurological deficit in rats is indicated by ataxia, loss of placing response and muscle tone.

[12] = loss of righting reflex (HD50) in mice i.p.; design: species or system mice (male albino, CF No. 1)
Protocol: as §5

in vivo [13] = conditions: mouse, po
Protocol: as §2, §3, §6

in vivo [14] = conditions: mouse, ip
[15] = mice, i.p., 95% confidence interval
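Throughout, for Rotorod TD50: mice on rotorod: neurological deficit scored when the animal cannot keep balance for 1 min in every one of three trials on a 1-inch knurled rod turning at 6 rpm.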

## Cc1cccc(-n2nncc2-c2ccncc2)c1 [Compound 17, 1-(m-Tolyl)-5-(4-pyridyl)-1H--1,2,3-triazole]
[1]
  Anticonvulsant Activity Group Classification: II (Class II compounds show anticonvulsant activity at doses greater than 100 mg/kg or show activity at 100 mg/kg which is not reinforced by similar activity at 300 mg/kg)

## COc1ccc(-n2nncc2-c2ccncc2)cc1 [Compound 6, 1-(p-Anisyl)-5-(4-pyridyl)-1H--1,2,3-triazole]
[1]
  Anticonvulsant Activity Group Classification: II (Class II compounds show anticonvulsant activity at doses greater than 100 mg/kg or show activity at 100 mg/kg which is not reinforced by similar activity at 300 mg/kg)

## Brc1ccc(-n2nncc2-c2cccnc2)cc1 [Compound 11, 1-(p-bromophenyl)-5-(3-pyridyl)-1H-1,2,3-triazole]
[1]
  signs of neurological deficit: do not exhibit significant signs of neurological deficit

## Fc1ccc(-n2nncc2-c2ccncc2)cc1 [Compound 4, 1-(p-Fluorophenyl)-5-(4-pyridyl)-1H--1,2,3-triazole]
[1]
  Anticonvulsant Activity Group Classification: II (Class II compounds show anticonvulsant activity at doses greater than 100 mg/kg or show activity at 100 mg/kg which is not reinforced by similar activity at 300 mg/kg)

## Fc1ccc(-n2nncc2-c2cccnc2)cc1 [Compound 12, 1-(p-Fluorophenyl)-5-(3-pyridyl)-1H--1,2,3-triazole]
[1]
  signs of neurological deficit: do not exhibit significant signs of neurological deficit

## picrotoxin
[2]
  sc CD97: 3.15 mg/kg

## O=C1C[C@@H]2OCC=C3CN4CC[C@]56c7ccccc7N1[C@H]5[C@H]2[C@H]3C[C@H]46 [strychnine]
[2]
  sc CD97: 1.20 mg/kg

## Clc1ccc(-n2nncc2-c2ccccc2)cc1 [Compound 1, 1-(p-Chlorophenyl)-5-phenyl-1H--1,2,3-triazole]
[1]
  signs of neurological deficit: do not exhibit significant signs of neurological deficit

## FC(F)(F)c1ccc(-n2nncc2-c2cccnc2)cc1 [Compound 19, 1-(p-Trifluoromethylphenyl)-5-(3-pyridyl)-1H--1,2,3-triazole]
[1]
  Anticonvulsant Activity Group Classification: II (Class II compounds show anticonvulsant activity at doses greater than 100 mg/kg or show activity at 100 mg/kg which is not reinforced by similar activity at 300 mg/kg)

## Clc1ccc(-n2nncc2-c2ccccn2)cc1 [Compound 14, 1-(p-Chlorophenyl)-5-(2-pyridyl)-1H--1,2,3-triazole]
[1]
  signs of neurological deficit: do not exhibit significant signs of neurological deficit

## CCC1(c2ccccc2)C(=O)NC(=O)NC1=O [Phenobarbital]
[3]
  effectiveness by the sc Bic test: effective by all four anticonvulsant tests
[3]; listed as phenobarbital
  effectiveness by the sc Bic test: effective by these tests
[4]
  effectiveness by the sc Pic test: effective by all four anticonvulsant tests
[4]; listed as phenobarbital
  effectiveness by the sc Pic test: effective by these tests
[5]
  effectiveness by the sc Strych test: had to be given in toxic doses in order to protect against this chemical convulsant
[5]; listed as phenobarbital
  effectiveness by the sc Strych test: effective by these tests
mice, i.p., MES
  TD3: 57
mice, i.p., sc Met
  TD3: 57
mice, oral, MES
  TD3: 58
mice, oral, sc Met
  TD3: 58
[6]; mice, i.p.
  ED97: 29
[6]; mice, oral
  ED97: 46
[7]; Rattus norvegicus, po
  ED97: 26 mg/kg
[7]; rats p.o., test not specified
  TPE: five
[8]; i.p.
  ED97: 27
[8]; oral
  ED97: 38
[9]
  ED97: 34
[10]
  Profile of acute toxicity, 1 x TD50: Ataxia with in-
  Profile of acute toxicity, 2 x TD50: Ataxia with in-
[11]; MES
  TD3: 14
[11]; sc Met
  TD3: 14

## Brc1ccc(-n2nncc2-c2ccccc2)cc1 [Compound 2, 1-(p-Bromophenyl)-5-phenyl-1H--1,2,3-triazole]
[1]
  signs of neurological deficit: do not exhibit significant signs of neurological deficit

## CN1CCc2cc3c(cc2[C@H]1[C@@H]1OC(=O)c2c1ccc1c2OCO1)OCO3 [bicuculline]
[2]
  sc CD97: 2.70 mg/kg

## CCCC(CCC)C(=O)O [Valproate]
[3]
  effectiveness by the sc Bic test: effective by all four anticonvulsant tests; also recorded: effective by these tests
[4]
  effectiveness by the sc Pic test: effective by all four anticonvulsant tests; also recorded: effective by these tests
[5]
  effectiveness by the sc Strych test: effective against strychnine in nontoxic doses; also recorded: effective by these tests
[12]; [15]
  HD50 (righting reflex): 885.53 mg/kg and 885.53(820.86-947.04) mg/kg
[12]; mouse, in vivo, ip, mice, i.p., 95% confidence interval, read-out: HD50 (righting reflex)
  TD50: 886 mg/kg
mice, i.p., MES
  TD3: 345
mice, i.p., sc Met
  TD3: 345
mice, oral, MES
  TD3: 500
mice, oral, sc Met
  TD3: 500
[6]; mice i.p.
  TPE: one-fourth
[6]; mice p.o.
  TPE: one to two
[6]; mice, i.p.
  ED97: 380
[6]; [15]
  MES ED50: 271.66(246.97-337.89) mg/kg
[6]; mice, i.p., 95% confidence interval, listed as valproate
  MES ED50: 271.66 mg/kg
[6]; mice, oral
  ED97: 840
[6]; mice, p.o.
  MES ED50: 664.80 mg/kg
[8]; i.p.
  effectiveness by the sc Met test: effective by all four anticonvulsant tests
  ED97: 218
[8]; i.p., 95% confidence interval
  sc Met ED50: 148.59(122.64-177.02) mg/kg
[8]; oral
  ED97: 680
[8]; p.o.
  sc Met ED50: 388.31 mg/kg
[9]
  ED97: 188
[10]
  Profile of acute toxicity, 1 x TD50: Mild ataxia
  Profile of acute toxicity, 2 x TD50: Ataxia
  Profile of acute toxicity, 4 x TD50: Both animals died.
[11]; MES
  TD3: 115
[11]; sc Met
  TD3: 115

## c1ccc(-n2nncc2-c2ccncc2)cc1 [Compound 3, 1-Phenyl-5-(4-pyridyl)-1H--1,2,3-triazole]
[1]
  signs of neurological deficit: do not exhibit significant signs of neurological deficit

## Clc1ccc(-n2nncc2-c2ccncc2)cc1Cl [Compound 8, 1-(3,4-Dichlorophenyl)-5-(4-pyridyl)-1H--1,2,3-triazole]
[1]
  protection: 100%
  signs of neurological deficit: without any signs of neurological deficit
  Anticonvulsant Activity Group Classification: II (Class II compounds show anticonvulsant activity at doses greater than 100 mg/kg or show activity at 100 mg/kg which is not reinforced by similar activity at 300 mg/kg)

## Cc1ccc(-n2nncc2-c2ccncc2)cc1 [Compound 5, 1-(p-Tolyl)-5-(4-pyridyl)-1H--1,2,3-triazole]
[1]
  Anticonvulsant Activity Group Classification: II (Class II compounds show anticonvulsant activity at doses greater than 100 mg/kg or show activity at 100 mg/kg which is not reinforced by similar activity at 300 mg/kg)

## CCC1(C)CC(=O)NC1=O (stereo not drawn) [Ethosuximide]
[3]
  effectiveness by the sc Bic test: had to be given in toxic doses to protect against sc Bic seizures
[4]
  effectiveness by the sc Pic test: effective
[5]; mice, i.p.
  animals protected in the sc Strych test: ≤ 62%
[12]; mouse, in vivo, ip
  HD50 (righting reflex): 850.61(751.19-917.93) mg/kg
[12]; mouse, in vivo, ip, HD50 (righting reflex)
  TD50: 851 mg/kg
[15]
  Rotorod TD50: 440.83(383.09-485.34) mg/kg
mice, i.p., 95% confidence interval, listed as ethosuximide
  Rotorod TD50: 440.83 mg/kg
mouse, in vivo, ip
  Rotorod TD50: 44,.83(383.09-485.34) mg/kg
mouse, in vivo, po
  TD50: 879,21 mg/kg
In vivo [13]
  TD50: 879 mg/kg
In vivo [14]
  LD50 at 24 h: 1750 mg/kg
[6]; mice, i.p.
  protection from maximal electroshock seizures: not able to protect mice from maximal electroshock seizures
[6]; [15]
  MES ED50: > 1000 mg/kg
[8]; i.p.
  effectiveness by the sc Met test: effective
[8]; i.p., 95% confidence interval
  sc Met ED50: 130.35 mg/kg and 130.35(110.99-150.45) mg/kg
[8]; p.o.
  sc Met ED50: 192.21 mg/kg
[10]
  Profile of acute toxicity, 1 x TD50: Uncoordinated
  Profile of acute toxicity, 2 x TD50: Uncoordinated
  Profile of acute toxicity, 4 x TD50: Uncoordinated

## Clc1ccc(-n2nncc2-c2cccnc2)cc1Cl [Compound 13, 1-(3,4-Dichlorophenyl)-5-(3-pyridyl)-1H--1,2,3-triazole]
[1]
  protection: 100%
  signs of neurological deficit: without any signs of neurological deficit
  Anticonvulsant Activity Group Classification: II (Class II compounds show anticonvulsant activity at doses greater than 100 mg/kg or show activity at 100 mg/kg which is not reinforced by similar activity at 300 mg/kg)
